Data on five compounds can be found in PMC4229968, “The Inhibition of the Components from Shengmai Injection towards UDP-Glucuronosyltransferase” (Evidence-based Complementary and Alternative Medicine : eCAM, 2014).

Each structure is given as a SMILES string. Read-outs that look alike come from different tables or passages of the source.

Type in all cases: in vitro ADME
In one data set the target is T1, UGT1A1 (Homo sapiens, UniProt P22309).
T1 construct: purchased BD Gentest Corp. (Woburn, MA, USA); host or cells: baculovirus-infected insect cells
T1 sequence (P22309 26-533): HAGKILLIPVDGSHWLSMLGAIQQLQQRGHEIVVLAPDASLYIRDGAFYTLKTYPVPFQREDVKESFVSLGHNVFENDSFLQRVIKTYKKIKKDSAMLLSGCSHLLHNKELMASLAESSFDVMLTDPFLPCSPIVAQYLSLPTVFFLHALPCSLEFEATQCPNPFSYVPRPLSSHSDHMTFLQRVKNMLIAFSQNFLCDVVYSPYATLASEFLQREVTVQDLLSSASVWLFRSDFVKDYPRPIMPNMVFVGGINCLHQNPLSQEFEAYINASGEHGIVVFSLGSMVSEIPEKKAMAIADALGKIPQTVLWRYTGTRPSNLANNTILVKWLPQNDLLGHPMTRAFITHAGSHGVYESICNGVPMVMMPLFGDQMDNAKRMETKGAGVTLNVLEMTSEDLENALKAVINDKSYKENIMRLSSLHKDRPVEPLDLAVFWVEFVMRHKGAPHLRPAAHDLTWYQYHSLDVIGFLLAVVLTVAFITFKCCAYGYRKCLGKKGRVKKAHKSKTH
The data set can be described thus: Recombinant UGT1A1-catalyzed 4-MU glucuronidation inhibition. The following applies: pH 7.4, probe 4-methylumbelliferone (4-MU), UGT1A1, 100 μM of compound, 4-MU substrate, read-out: residual activity. An excerpt:
(§1) 4-Methylumbelliferone (4-MU), 4-methylumbelliferone-β-D-glucuronide (4-MUG), Tris-HCl, 7-hydroxycoumarin, and uridine-5′-diphosphoglucuronic acid (UDPGA) (trisodium salt) were purchased from Sigma-Aldrich (St. Louis, MO). Recombinant human UGT isoforms (UGT1A1, UGT1A3, UGT1A4, UGT1A6, UGT1A7, UGT1A8, UGT1A9, UGT1A10, UGT2B4, UGT2B7, and UGT2B15) expressed in baculovirus-infected insect cells were obtained from BD Gentest Corp. (Woburn, MA, USA). Ophiopogonin D (OD), ophiopogonin D′ (OD′), methylophiopogonanone A (MA), methylophiopogonanone B (MB), and ruscorectal (RU) were purchased from Sichuan Weikeqi Biotechnology Company (Chengdu, Sichuan, China). The purity of these compounds was above 95%. All other reagents were of HPLC grade or of the highest grade commercially available.
(§2) 4-MU, the nonspecific probe substrate for all the UGT isoforms except UGT1A4, was used in the present study to initially screen the inhibition potential of maidong's components towards UGT isoforms as previously reported. In brief, the incubation system (total volume = 200 μL) consisted of recombinant UGTs, 5 mM UDPGA, 5 mM MgCl2, 50 mM Tris-HCl (pH = 7.4), and 4-MU in the absence or presence of different concentrations of maidong's components. The compounds were dissolved in DMSO, and the final concentration of DMSO was below 0.5% (v/v). The used incubation time and protein concentration were previously determined to ensure the reaction rate within the linear range. The 4-MU concentration was equal to known K m or S 50 values for each UGT isoform. After 5 min preincubation at 37°C, the incubation reaction was initiated via adding UDPGA to the mixture system. The reactions were quenched by adding 100 μL acetonitrile with 7-hydroxycoumarin (100 μM) as internal standard. Centrifuged at 20000 ×g for 10 min, an aliquot of supernatant was transferred to an autoinjector vial for HPLC analysis. The HPLC system (Shimadzu, Kyoto, Japan) contained a SCL-10A system controller, two LC-10AT pumps, a SIL-10A autoinjector, and a SPD-10AVP UV detector. Chromatographic separation was carried out using a C18 column (4.6 × 200 mm, 5 μm, Kromasil) at a flow rate of 1 mL/min and UV detector at 316 nm. The mobile phase consisted of acetonitrile (A) and H2O containing 0.5% (v/v) formic acid (B). The following gradient condition was used: 0–15 min, 95–40% B; 15–20 min, 10% B; 20–30 min, 95% B.

A further data set addresses T2, UGT1A10 (Homo sapiens, UniProt Q9HAW8).
T2 construct: purchased BD Gentest Corp. (Woburn, MA, USA); host or cells: baculovirus-infected insect cells
T2 sequence (Q9HAW8 26-530): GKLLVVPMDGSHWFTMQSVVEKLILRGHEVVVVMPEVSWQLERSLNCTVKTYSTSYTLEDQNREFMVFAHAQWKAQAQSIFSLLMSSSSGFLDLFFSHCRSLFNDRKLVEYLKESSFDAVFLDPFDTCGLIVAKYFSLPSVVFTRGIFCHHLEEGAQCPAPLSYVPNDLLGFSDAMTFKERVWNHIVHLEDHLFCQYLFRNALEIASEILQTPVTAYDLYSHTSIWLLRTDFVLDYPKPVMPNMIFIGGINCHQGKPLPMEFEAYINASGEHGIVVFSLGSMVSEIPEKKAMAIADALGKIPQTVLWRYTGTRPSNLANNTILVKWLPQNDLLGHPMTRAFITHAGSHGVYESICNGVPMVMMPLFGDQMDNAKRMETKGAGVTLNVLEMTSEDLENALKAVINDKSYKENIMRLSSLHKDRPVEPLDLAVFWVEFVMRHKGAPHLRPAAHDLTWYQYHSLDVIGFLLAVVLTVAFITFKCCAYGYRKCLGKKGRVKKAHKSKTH
In words: Recombinant UGT1A10-catalyzed 4-MU glucuronidation inhibition. To be noted: for activity at 100 µM: UGT1A10, 100 μM of compound, 4-MU substrate, read-out: residual activity.
From the text: as §1, §2
(§3) To determine the inhibition kinetic type and parameters (K i), the reaction velocity (V) was determined at multiple concentrations of maidong's components and 4-MU (or TFP). Dixon plot and Lineweaver-Burk plot were used to fit the data. The inhibition kinetic type was evaluated through determining the intersection point in the Dixon and Lineweaver-Burk plots.
(§4) K m value is the substrate concentration in which the velocity reached half of the maximum velocity (V max) of the reaction. K i value is the inhibition constant.

The target in the next data set is T3, UGT1A6 (Homo sapiens, UniProt P19224).
T3 construct: purchased BD Gentest Corp. (Woburn, MA, USA); host or cells: baculovirus-infected insect cells
T3 sequence (P19224 27-532): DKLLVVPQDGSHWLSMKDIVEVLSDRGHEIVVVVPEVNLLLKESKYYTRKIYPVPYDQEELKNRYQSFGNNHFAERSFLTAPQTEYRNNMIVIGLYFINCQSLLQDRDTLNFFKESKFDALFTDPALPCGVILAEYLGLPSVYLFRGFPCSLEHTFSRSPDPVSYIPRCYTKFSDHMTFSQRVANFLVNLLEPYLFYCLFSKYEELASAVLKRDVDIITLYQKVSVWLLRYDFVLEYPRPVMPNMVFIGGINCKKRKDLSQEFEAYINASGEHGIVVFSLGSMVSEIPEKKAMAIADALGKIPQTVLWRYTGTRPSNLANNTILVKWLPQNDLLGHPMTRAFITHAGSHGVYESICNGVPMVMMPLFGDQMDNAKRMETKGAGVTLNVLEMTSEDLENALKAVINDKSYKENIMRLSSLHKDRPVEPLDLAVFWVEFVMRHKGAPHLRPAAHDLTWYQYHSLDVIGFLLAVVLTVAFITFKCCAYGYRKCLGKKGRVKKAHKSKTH
In words: Recombinant UGT1A6-catalyzed 4-MU glucuronidation inhibition. The following applies: for activity at 100 µM / inhibition at 100 µM: human, pH 7.4, probe 4-methylumbelliferone (4-MU); for activity at 100 µM: UGT1A6, 100 μM of compound, 4-MU substrate, read-out: residual activity; for inhibition type: UGT1A6, Dixon and Lineweaver-Burk plots; for inhibition at 100 µM: UGT1A6, at 100 μM, read-out: inhibition percent.
From the text: as §1, §2, §3, §4

Where [1] appears, read: human, pH 7.4, probe 4-methylumbelliferone (4-MU).

For `Cc1c(O)c(C)c2c(c1O)C(=O)[C@H](Cc1ccc3c(c1)OCO3)CO2` [MA, methylophiopogonanone A], the activity at 100 µM at UGT1A1 came to 31.3 ± 1.3%; on UGT1A10 (setting [1]) it was 70 ± 9.3%; on UGT1A6 it was 67 ± 1.7%.
On to `COc1ccc(C[C@@H]2COc3c(C)c(O)c(C)c(O)c3C2=O)cc1` [MB, methylophiopogonanone B], for which the activity at 100 µM is 27.9 ± 11.1% at UGT1A1, 96.9 ± 7.3% at UGT1A10 (setting [1]) and 65.3 ± 2% on UGT1A6.
Turning to `C[C@@H]1CC[C@@]2(OC1)O[C@H]1C[C@H]3[C@@H]4CC=C5C[C@@H](O)C[C@@H](O[C@@H]6O[C@H](C)[C@H](O)[C@H](O[C@@H]7OC[C@@H](O)[C@H](O)[C@H]7O)[C@H]6O[C@@H]6O[C@@H](C)[C@H](O)[C@@H](O)[C@H]6O)[C@]5(C)[C@H]4CC[C@]3(C)[C@H]1[C@@H]2C` [OD, ophiopogonin D], on UGT1A1, the activity at 100 µM was 77.1 ± 3.8%. Besides, the activity at 100 µM at UGT1A10 (setting [1]) is 26.5 ± 1.5%. On UGT1A6, the Ki (in general, the dissociation constant of the complex between target and ligand, obtained from inhibition or displacement) is 20.6 µM; the inhibition type result is “noncompetitively inhibited”; the activity at 100 µM stood at 12.8 ± 3.1%; the inhibition – broadly, the percentage by which the read-out fell short of the control – at 100 µM turned out to be 87.2%.
As for `C[C@@H]1CC[C@@]2(OC1)O[C@H]1C[C@H]3[C@@H]4CC=C5C[C@@H](O[C@@H]6O[C@H](CO)[C@@H](O)[C@H](O[C@@H]7OC[C@@H](O)[C@H](O)[C@H]7O)[C@H]6O[C@@H]6O[C@@H](C)[C@H](O)[C@@H](O)[C@H]6O)CC[C@]5(C)[C@H]4CC[C@]3(C)[C@H]1[C@@H]2C` [OD′, ophiopogonin D′], the activity at 100 µM at UGT1A1 was determined as 81 ± 12.6%; on UGT1A10 (setting [1]), 19.8 ± 3.2%; at UGT1A6 it was 12.1 ± 1.9%. Also, the Ki at UGT1A10 (UGT1A10-catalyzed 4-MU glucuronidation, read-out: inhibition kinetic parameter (Ki)) came out at 9 µM; at UGT1A6 (UGT1A6-catalyzed 4-MU glucuronidation, read-out: inhibition kinetic parameter (Ki)), 5.3 µM. Besides, the inhibition type entry was “noncompetitively inhibited” at UGT1A10 (UGT1A10, Dixon and Lineweaver-Burk plots); “noncompetitively inhibited” at UGT1A6. Besides, the inhibition at 100 µM on UGT1A10 (human, pH 7.4, probe 4-methylumbelliferone (4-MU), UGT1A10, at 100 μM, read-out: inhibition percent) stood at 80.2%; at UGT1A6, 87.9%.
In the case of `CC1CCC2(OC1)OC1CC3C4CC=C5CC(O)CC(O)C5(C)C4CCC3(C)C1C2C` (stereo not drawn) [RU, ruscorectal], the activity at 100 µM was 41.5 ± 36.9% at UGT1A1, 82 ± 5.2% at UGT1A10 (setting [1]) and 65.9 ± 11.6% at UGT1A6.
